The values that follow come from patent US20260297070A1, “CYCLIC [COMPOUND LEFT OUT] WRN INHIBITORS” (Nimbus Wadjet, Inc., priority 2023, published 2026).

The target in the experiment is T1, human Werner helicase (WRN-BV08, Uniprot Q14191, amino acids 517-1235 with L1074F point mutation) (Homo sapiens, UniProt Q14191, L1074F).
T1 construct: Uniprot Q14191, amino acids 517-1235 with L1074F point mutation; TEV-cleavable 8×His (C, cleaved yes); made in house; host or cells: Sf9 insect cells (baculovirus)
T1 sequence (Q14191 with tags, fused parts or gaps L1074F limits assumed): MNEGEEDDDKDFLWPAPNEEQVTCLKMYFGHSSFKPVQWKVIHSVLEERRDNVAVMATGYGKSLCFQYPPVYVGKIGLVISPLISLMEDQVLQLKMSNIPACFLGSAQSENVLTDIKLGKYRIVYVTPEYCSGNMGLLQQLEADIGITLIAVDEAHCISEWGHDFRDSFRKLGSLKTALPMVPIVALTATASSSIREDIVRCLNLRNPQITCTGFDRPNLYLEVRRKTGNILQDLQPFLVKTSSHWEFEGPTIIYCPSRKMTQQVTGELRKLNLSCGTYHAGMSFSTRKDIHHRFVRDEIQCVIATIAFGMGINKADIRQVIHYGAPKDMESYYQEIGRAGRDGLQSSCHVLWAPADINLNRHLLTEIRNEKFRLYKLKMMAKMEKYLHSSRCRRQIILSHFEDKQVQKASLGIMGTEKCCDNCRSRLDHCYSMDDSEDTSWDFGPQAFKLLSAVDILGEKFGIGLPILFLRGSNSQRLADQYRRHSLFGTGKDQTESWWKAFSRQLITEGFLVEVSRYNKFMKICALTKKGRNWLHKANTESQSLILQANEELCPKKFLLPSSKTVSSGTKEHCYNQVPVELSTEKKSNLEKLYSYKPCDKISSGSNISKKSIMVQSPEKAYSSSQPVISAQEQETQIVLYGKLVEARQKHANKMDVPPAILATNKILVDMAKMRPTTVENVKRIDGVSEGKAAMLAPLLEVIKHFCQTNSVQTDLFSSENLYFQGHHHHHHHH
As to the kind of experiment: WRN (BV08) ADP-Glo Assay. It counts as biochemical. The conditions noted are these: 0.15 nM WRN, 5 μM ATP, 0.1 nM DNA duplex, 15 min preincubation, 60 min at 25° C., pH 7.5, 1% DMSO; read-out: ADP-Glo_hWRN_IC50. The essentials: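 WRN 0.15 nM + cpd, 15 min 25 °C; add 5 μM ATP / 0.1 nM annealed DNA duplex; 60 min 25 °C; ADP-Glo stop, RLU. Buffer 20 mM Bicine pH 7.5, 1 mM MgCl2, 10 mM KCl, 1 mM TCEP. IC50, 4-parameter fit.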
Consider `COc1cc(CN(C(=O)Cc2ccc(-c3ccc(F)cn3)c(O)c2)C2C=CS(=O)(=O)C2)ccn1` (stereo not shown) [I-668, N-(1,1-dioxo-2,3-dihydro-1lambda6-thiophen-3-yl)-2-[4-(5-fluoropyridin-2-yl)-3-hydroxyphenyl]-N-[(2-methoxypyridin-4-yl)methyl]acetamide], for which the IC50 lay within 5 to 10 µM. Take `CCc1ccc(CC(=O)N(Cc2ccncc2)C2C=CS(=O)(=O)C2)cc1` (stereo not shown) [I-308, N-(1,1-dioxo-2,3-dihydro-1lambda6-thiophen-3-yl)-2-(4-ethylphenyl)-N-[(pyridin-4-yl)methyl]acetamide]: the IC50 was 10 to 50 µM. The value for `N#Cc1csc(CN(C(=O)Cc2ccc(-n3cccc3)cc2)C2C=CS(=O)(=O)C2)n1` (stereo not shown) [I-190, N-[(4-cyano-1,3-thiazol-2-yl)methyl]-N-(1,1-dioxo-2,3-dihydro-1lambda6-thiophen-3-yl)-2-[4-(1H-pyrrol-1-yl)phenyl]acetamide] was 0.5 to 5 µM.

`O=C(Cc1ccc(-n2cccc2)cc1)N(Cc1ccc(B(O)O)cc1)C1C=CS(=O)(=O)C1` (stereo not shown) [I-321, (4-((2-(4-(1H-pyrrol-1-yl)phenyl)-N-(1,1-dioxido-2,3-dihydrothiophen-3-yl)acetamido)methyl)phenyl)boronic acid]: the IC50 was in the range of 10 to 50 µM. For the compound `Cc1nc(CN(C(=O)Cc2ccc(S(F)(F)(F)(F)F)cc2)C2C=CS(=O)(=O)C2)sc1C` (stereo not shown) [I-612, N-[(4,5-dimethyl-1,3-thiazol-2-yl)methyl]-N-(1,1-dioxo-2,3-dihydro-1lambda6-thiophen-3-yl)-2-[4-(pentafluoro-lambda6-sulfanyl)phenyl]acetamide], the IC50 is less than 0.5 µM. As to `O=C(Cn1cc2ccccc2n1)N(Cc1ccncc1)C1C=CS(=O)(=O)C1` (stereo not shown) [I-433, N-(1,1-dioxo-2,3-dihydro-1lambda6-thiophen-3-yl)-2-(2H-indazol-2-yl)-N-[(pyridin-4-yl)methyl]acetamide], the IC50 is more than 50 µM. The value for `COc1cc(C(C)N(C(=O)Cn2cc(-c3cc(F)c(F)c(F)c3)cn2)C2C=CS(=O)(=O)C2)ccn1` (stereo not shown) [I-820, N-(1,1-dioxo-2,3-dihydro-1lambda6-thiophen-3-yl)-N-[1-(2-methoxypyridin-4-yl)ethyl]-2-[4-(3,4,5-trifluorophenyl)-1H-pyrazol-1-yl]acetamide] was less than 0.5 µM; that for `COc1cc(CN(C(=O)Cc2ncc(-c3ccc(F)c(F)c3)cn2)C2C=CS(=O)(=O)C2)ccn1` (stereo not shown) [I-198, 2-[5-(3,4-difluorophenyl)pyrimidin-2-yl]-N-(1,1-dioxo-2,3-dihydro-1lambda6-thiophen-3-yl)-N-[(2-methoxypyridin-4-yl)methyl]acetamide] was 0.5 to 5 µM; that for `COCCOC(C(=O)N(Cc1ccnc(C(C)(C)O)c1)[C@@H]1C=CS(=O)(=O)C1)c1ccc(-c2ccc(F)c(F)c2)cc1F` (stereo partly drawn) [I-30, N-[(3R)-1,1-dioxo-2,3-dihydro-1lambda6-thiophen-3-yl]-N-{[2-(2-hydroxypropan-2-yl)pyridin-4-yl]methyl}-2-(2-methoxyethoxy)-2-{3,3′,4′-trifluoro-[1,1′-biphenyl]-4-yl}acetamide] was less than 0.5 µM. Under `CC(C)(O)c1cc(CN(C(=O)C(OCC(F)(F)F)c2ccc(-c3ccc(F)c(F)c3)cc2F)[C@@H]2C=CS(=O)(=O)C2)ccn1` (single isomer, unassigned) [I-805] stands less than 0.5 µM. Turning to `COCC(C(=O)N(Cc1ccnc(C(C)(C)O)c1)C1C=CS(=O)(=O)C1)c1ccc(-c2ccc(F)c(F)c2)cc1F` (stereo not shown) [I-195, N-(1,1-dioxo-2,3-dihydro-1lambda6-thiophen-3-yl)-N-{[2-(2-hydroxypropan-2-yl)pyridin-4-yl]methyl}-3-methoxy-2-{3,3′,4′-trifluoro-[1,1′-biphenyl]-4-yl}propanamide], the IC50 lay in the range of 0.5 to 5 µM. As for `O=C(Cc1ccc(S(=O)(=O)C(F)F)cc1)N(Cc1ccncc1)C1C=CS(=O)(=O)C1` (stereo not shown) [I-351, 2-(4-difluoromethanesulfonylphenyl)-N-(1,1-dioxo-2,3-dihydro-1lambda6-thiophen-3-yl)-N-[(pyridin-4-yl)methyl]acetamide], the IC50 fell in the range of 10 to 50 µM. Under `O=C(Cc1ccc(C(F)(F)F)c(F)c1)N(Cc1ccncc1)C1C=CS(=O)(=O)C1` (stereo not shown) [I-236, N-(1,1-dioxo-2,3-dihydro-1lambda6-thiophen-3-yl)-2-[3-fluoro-4-(trifluoromethyl)phenyl]-N-[(pyridin-4-yl)methyl]acetamide] stands 5 to 10 µM. Regarding `O=C(Cc1ccc(-n2cccc2)cc1F)N(Cc1ccncc1)C1C=CS(=O)(=O)C1` (single isomer, unassigned) [I-127], the IC50 is 0.5 to 5 µM.

As to `Cc1cccn1-c1ccc(CC(=O)N(Cc2ccncc2)C2C=CS(=O)(=O)C2)cc1` (stereo not shown) [I-206, N-(1,1-dioxo-2,3-dihydro-1lambda6-thiophen-3-yl)-2-[4-(2-methyl-1H-pyrrol-1-yl)phenyl]-N-[(pyridin-4-yl)methyl]acetamide], the IC50 was 0.5 to 5 µM. The value for `CN1CCc2c(ccn2-c2ccc(CC(=O)N(Cc3ccccc3)C3C=CS(=O)(=O)C3)cc2)C1` (stereo not shown) [I-456, N-benzyl-N-(1,1-dioxo-2,3-dihydro-1lambda6-thiophen-3-yl)-2-(4-{5-methyl-1H,4H,5H,6H,7H-pyrrolo[3,2-c]pyridin-1-yl}phenyl)acetamide] was more than 50 µM; that for `COc1cc(CN(C(=O)C(OCC#N)c2ccc(-c3ccc(F)c(F)c3)cc2F)[C@@H]2C=CS(=O)(=O)C2)ccn1` (stereo partly drawn) [I-691, 2-(cyanomethoxy)-N-[(3R)-1,1-dioxo-2,3-dihydro-1lambda6-thiophen-3-yl]-N-[(2-methoxypyridin-4-yl)methyl]-2-{3,3′,4′-trifluoro-[1,1′-biphenyl]-4-yl}acetamide] was 0.5 to 5 µM. Under `O=C(Cc1ccc(-n2cccc2)cc1)N(CCc1ccncc1)C1C=CS(=O)(=O)C1` (stereo not shown) [I-462, N-(1,1-dioxo-2,3-dihydro-1lambda6-thiophen-3-yl)-N-[2-(pyridin-4-yl)ethyl]-2-[4-(1H-pyrrol-1-yl)phenyl]acetamide] stands more than 50 µM. For `CC1CC1c1ccc(CC(=O)N(Cc2ccncc2)C2C=CS(=O)(=O)C2)cc1` (stereo not shown) [I-245, N-(1,1-dioxo-2,3-dihydro-1lambda6-thiophen-3-yl)-2-[4-(2-methylcyclopropyl)phenyl]-N-[(pyridin-4-yl)methyl]acetamide], the IC50 lay within 5 to 10 µM.

As for `O=C(Cc1ccc(-c2cccc(F)c2)cc1)N(Cc1ccncc1)C1C=CS(=O)(=O)C1` (stereo not shown) [I-188, N-(1,1-dioxo-2,3-dihydro-1lambda6-thiophen-3-yl)-2-{3′-fluoro-[1,1′-biphenyl]-4-yl}-N-[(pyridin-4-yl)methyl]acetamide], the IC50 was in the range of 0.5 to 5 µM. The value for `CC(C)c1ccc(CC(=O)N(Cc2ccnc(C(C)(C)O)c2)C2C=CS(=O)(=O)C2)cc1` (stereo not shown) [I-123, N-(1,1-dioxo-2,3-dihydro-1lambda6-thiophen-3-yl)-N-{[2-(2-hydroxypropan-2-yl)pyridin-4-yl]methyl}-2-[4-(propan-2-yl)phenyl]acetamide] was 0.5 to 5 µM; that for `O=C(Cn1cc(-c2ccc(F)c(F)c2)cn1)N(Cc1nc([C@@H]2C[C@H]2F)cs1)C1C=CS(=O)(=O)C1` (stereo partly drawn) [I-723, 2-[4-(3,4-difluorophenyl)-1H-pyrazol-1-yl]-N-(1,1-dioxo-2,3-dihydro-1lambda6-thiophen-3-yl)-N-({4-[(1S,2R)-2-fluorocyclopropyl]-1,3-thiazol-2-yl}methyl)acetamide] was less than 0.5 µM.
